Experimental data taken from patent US5866545A, “Substituted ketone derivatives as inhibitors of interleukin-1β converting enzyme” (Merck & Co., Inc., priority 1996, dated 1999).
Read-outs that look alike come from different tables or passages of the source.

Target: T1, interleukin-1β converting enzyme (ICE) (Homo sapiens, UniProt P29466)
T1 sequence (P29466 120-297 limits assumed): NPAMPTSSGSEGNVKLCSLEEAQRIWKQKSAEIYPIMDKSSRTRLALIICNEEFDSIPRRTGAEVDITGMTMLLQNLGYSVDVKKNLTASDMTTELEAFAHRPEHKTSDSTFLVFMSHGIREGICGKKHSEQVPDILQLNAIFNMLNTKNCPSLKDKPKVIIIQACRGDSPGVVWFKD
T1 sequence (P29466 317-404 limits assumed): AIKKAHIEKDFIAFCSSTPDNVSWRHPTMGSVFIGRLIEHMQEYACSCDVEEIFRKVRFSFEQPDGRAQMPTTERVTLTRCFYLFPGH
Experiment: Fluorometric assay of inhibition of ICE hydrolysis of peptide substrate Ac-Tyr-Val-Ala-Asp-AMC
Type: biochemical
Conditions: for Ki: reversible inhibition; for kon: irreversible inhibition
Text: Inhibition of Interleukin-1β Converting Enzyme (ICE).
A fluorometric assay used to evaluate the inhibition of interleukin-1βconverting enzyme (ICE) hydrolysis of a peptide substrate (Ac-Tyr-Val-Ala-Asp-AMC) by the compounds described in Examples 1-15 has been described in detail (N. A. Thornberry et al., Nature 1992, 356, 768-774). Briefly, liberation of AMC (aminomethylcoumarin) from the substrate was monitored continuously in a spectrofluorometer using an excitation wavelength of 380 nm and an emission wavelength of 460 nm. Details for determining kinetic constants for reversible and irreversible inhibition are described (N. A. Thomberry et al., Biochemistry 1994, 33, 3934-3940).
Inhibition of Interleukin-1β Converting Enzyme (ICE) by Examples 1-14

Ki	kon	kon (read-out: kon)	SMILES
5000 nM	–	–	C=CCOC(=O)NC(CC(=O)O)C(=O)COc1ccc2ccccc2c1 (centres unmarked) [Example 3, N-Allyloxycarbonyl-3-amino-5-(2-naphthyloxy)-4-oxopentanoic acid]
3 nM	–	–	CC(=O)N[C@@H](Cc1ccc(O)cc1)C(=O)N[C@H](C(=O)N[C@@H](C)C(=O)NC(CC(=O)O)C(=O)COc1ccccc1)C(C)C (some centres unmarked) [Example 11, N-(N-Acetyl-(L)-tyrosinyl-(L)-valinyl-(L)-alaninyl)-3-amino-5-phenoxy-4-oxopentanoic acid]
–	430,000 M^-1 s^-1	–	CC(C)[C@H](NC(=O)OCc1ccccc1)C(=O)N[C@@H](C)C(=O)NC(CC(=O)O)C(=O)COc1cc2ccccc2cc1C(N)=O.CCN(CC)CC (some centres unmarked) [Example 12, N-(N-Carbobenzyloxy-(L)-valinyl-(L)-alaninyl)-3-amino-5-(3-amino-carbonyl-naphthyl-2-oxy)-4-oxo-pentanoic acid, triethylamine salt]
1200 nM	–	–	C=CCOC(=O)NC(CC(=O)O)C(=O)COc1cc2ccccc2cc1CO (centres unmarked) [Example 7, N-Allyloxycarbonyl-3-amino-5-(3-hydroxymethyl-2-naphthyloxy)-4-oxopentanoic acid]
300 nM	–	–	C=CCOC(=O)NC(CC(=O)O)C(=O)COc1cc2ccccc2cc1C(N)=O (centres unmarked) [Example 4, N-Allyloxycarbonyl-3-amino-5-(3-aminocarbonyl-2-naphthyloxy)-4-oxopentanoic acid]
90 nM	12,000 M^-1 s^-1	–	C=CCOC(=O)NC(CC(=O)O)C(=O)COc1cc2ccccc2cc1-n1ccnc1 (centres unmarked) [Example 10, N-Allyloxycarbonyl-3-amino-5-(3-imidazolyl-2-naphthyloxy)-4-oxopentanoicacid]
520 nM	1000 M⁻¹ s⁻¹	–	C=CCOC(=O)NC(CC(=O)O)C(=O)COc1cc2ccccc2cc1C(=O)NCCO (centres unmarked) [Example 9, N-Allyloxycarbonyl-3-amino-5-(3-(2-hydroxyethyl-1-aminocarbonyl)-2-naphthyloxy)-4-oxopentanoic acid]
–	390 M⁻¹ s⁻¹	–	NC(=O)c1cc2ccccc2cc1OCC(=O)C(CC(=O)O)NC(=O)c1cc2ccccc2[nH]1 (centres unmarked) [Example 14, N-(2-indoloyl)-3-amino-5-(3-aminocarbonyl-naphthyl-2-oxy)-4-oxo-pentanoic acid]
9500 nM	–	–	C=CCOC(=O)NC(CC(=O)O)C(=O)COc1cccc2ccccc12 (centres unmarked) [Example 2, N-Allyloxycarbonyl-3-amino-5-(1-naphthyloxy)-4-oxopentanoic acid]
–	340,000 M^-1 s^-1	–	CC(C)[C@H](NC(=O)OCc1ccccc1)C(=O)N1CCC[C@H]1C(=O)NC(CC(=O)O)C(=O)COc1cc2ccccc2cc1C(N)=O (some centres unmarked) [Example 13, N-(N-Carbobenzyloxy-(L)-valinyl-(L)-prolinyl)-3-amino-5-(3-amino-carbonyl-naphthyl-2-oxy)-4-oxo-petanoic acid]
3500 nM	–	–	C=CCOC(=O)NC(CC(=O)O)C(=O)COc1ccccc1 (centres unmarked) [Example 1, N-Allyloxycarbonyl-3-amino-4-oxo-5-phenoxy-pentanoic acid]
500 nM	–	–	C=CCOC(=O)NC(CC(=O)O)C(=O)COc1cc2ccccc2cc1C(=O)Nc1ccccc1 (centres unmarked) [Example 5, N-Allyloxycarbonyl-3-amino-5-(3-(N-phenyl)aminocarbonyl-2-naphthyloxy)-4-oxopentanoic acid]
2600 nM	–	–	C=CCOC(=O)NC(CC(=O)O)C(=O)COc1cc2ccccc2cc1C(=O)OC (centres unmarked) [Example 8, N-Allyloxycarbonyl-3-amino-5-(3-methoxycarbonyl-2-naphthyloxy)-4-oxopentanoic acid]
620 nM	–	4500 M⁻¹ s⁻¹	C=CCOC(=O)NC(CC(=O)O)C(=O)COc1cc2ccccc2cc1C#N (centres unmarked) [Example 6, N-Allyloxycarbonyl-3-amino-5-(3-cyano-2-naphthyloxy)-4-oxopentanoic acid]
